Assays:
dN-SARM1 protein [1] = target: T1, dN-SARM1 protein (Homo sapiens, UniProt Q6SZW1); experiment: In vitro biochemical assay for inhibiting SARM1 enzymatic activity (IC50), PC6 fluorescence method; conditions: 50 μM NAD, 50 μM PC6, 50 μM NMN activator
T1 construct: the N-terminal mitochondrial localization signal peptide of SARM1 was removed
T1 sequence (Q6SZW1 28-724): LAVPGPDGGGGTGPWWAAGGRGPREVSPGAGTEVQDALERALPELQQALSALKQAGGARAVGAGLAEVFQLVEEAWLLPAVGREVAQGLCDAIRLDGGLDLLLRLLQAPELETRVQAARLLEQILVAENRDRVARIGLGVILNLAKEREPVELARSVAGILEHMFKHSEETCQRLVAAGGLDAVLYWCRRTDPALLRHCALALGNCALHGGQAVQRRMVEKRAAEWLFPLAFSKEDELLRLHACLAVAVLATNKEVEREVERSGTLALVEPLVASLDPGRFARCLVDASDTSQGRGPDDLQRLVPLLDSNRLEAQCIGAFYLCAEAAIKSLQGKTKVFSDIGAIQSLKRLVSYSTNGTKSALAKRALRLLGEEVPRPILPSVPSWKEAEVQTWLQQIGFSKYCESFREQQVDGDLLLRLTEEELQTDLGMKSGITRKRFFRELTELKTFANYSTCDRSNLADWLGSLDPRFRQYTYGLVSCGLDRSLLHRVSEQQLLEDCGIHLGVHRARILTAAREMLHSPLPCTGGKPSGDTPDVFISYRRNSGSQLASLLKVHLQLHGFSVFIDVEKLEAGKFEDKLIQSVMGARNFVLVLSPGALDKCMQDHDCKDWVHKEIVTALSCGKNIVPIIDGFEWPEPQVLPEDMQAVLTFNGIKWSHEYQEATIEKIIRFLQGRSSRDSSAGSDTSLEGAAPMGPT
Method in brief: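 Activity read as the rate of PC6 fluorescence change (390 nm excitation, 520 nm emission) over a 30 min room-temperature reaction containing final 50 μM each of NAD, PC6 and NMN activator. Enzyme, 0.05 μg/ml dN-SARM1 in 50 mM Tris-HCl pH 7.5, first incubated 10 min with compound diluted serially from 200 μM; IC50 calculated.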

dN-SARM1 protein [2] = target: T1, dN-SARM1 protein; experiment: In vitro biochemical assay for inhibiting SARM1 enzymatic activity (% inhibition rate), PC6 fluorescence method; conditions: 20 μM compound; 50 μM NAD, 50 μM PC6, 50 μM NMN activator
Method: The compounds were subjected to PC6 fluorescence method measurement [Chinese Patent 202010528147.3] using the dN-SARM1 protein obtained through “(4) Protein extraction” in “Expression and purification of SARM1 protein” in the above biological activity example 1.
First, 0.05 μg/ml dN-SARM1 and 20 μM compound were incubated in 50 mM Tris-HCl (pH 7.5) solution for 10 min, and then added with 50 μM NAD and 50 μM PC6 as substrate and 50 μM NMN as activator for 30 minutes of reaction at room temperature. The concentration of each component was the final concentration in the reaction system.
During the reaction, PC6 fluorescence spectrum dynamics were detected by a microplate reader, wherein the excitation wavelength and emission wavelength for detection were 390 nm and 520 nm, respectively. Finally, the reaction rate was used to express the activity of the protein. The higher the reaction rate, the stronger the activity of the protein and the lower the inhibitory efficiency of the compound.

[3] = target: T2, SARM1 protein in iSARM1 (HEK293) cells (Homo sapiens, UniProt Q6SZW1); experiment: Inhibitory activity in inducible SARM1 overexpressing cell line, intracellular cADPR level; format: cell-based; conditions: activator CZ-48 100 μM, cADPR content
T2 construct: The full-length SARM1 was synthesized into the pUC57 plasmid by WZ Biosciences Inc., and PCR was performed using pUC57-SARM1 as a DNA template
T2 sequence (Q6SZW1 28-724): T1 sequence (Q6SZW1 28-724)
Method in brief: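 Inducible SARM1-overexpressing HEK293 cells preincubated 1.5 h with inhibitor (50 μM final), then activated with 100 μM CZ-48 for 16 h. Intracellular cADPR extracted with perchloric acid, NAD+ removed by NADase, and quantified by cyclase-coupled resazurin cycling assay (Ex/Em 544/599, 30 min kinetics) against cADPR standards; inhibition rate and IC50 calculated.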

IC50 (dN-SARM1 protein [1]) [nM]	inhibition at 20 µM (dN-SARM1 protein [2]) [%]	EC50 [3] [nM]	SMILES
< 1000	> 90	< 1000	CC(C)(C)OC(=O)Nc1ccc2ncc(-c3cccc(NC(=O)COCCOCCOCC(=O)Nc4cccc(-c5cnc6ccc(NC(=O)OC(C)(C)C)cn56)c4)c3)n2c1 [Compound 123]
< 1000	> 90	1000 to 10000	CNc1ccc2ncc(-c3cccc(NC(=O)COCCOCCOCC(=O)Nc4cccc(-c5cnc6ccc(NC)cn56)c4)c3)n2c1 [Compound 79]
1000 to 10000	50 to 89		COc1cccn2c(-c3ccccc3)cnc12 [Compound 27]
< 1000	> 90		CNc1ccc2ncc(-c3cccc(C(=O)NC4CCOCC4)c3)n2c1 [Compound 136]
1000 to 10000	> 90		COCCOCC(=O)Nc1cccc(-c2cnc3ccc(CNC(=O)C(C)(C)C)cn23)c1 [Compound 146]
< 1000	> 90		CNc1ccc2ncc(-c3cccc(OCC4CCOCC4)c3)n2c1 [Compound 154]
1000 to 10000	> 90		CCOC(=O)CCC(=O)Nc1cccc(-c2cnc3ccc(N(C)C(=O)OC(C)(C)C)cn23)c1 [Compound 151]
< 1000	50 to 89		COCCOCC(=O)Nc1cccc(-c2cnc3ccc(NC(=O)OC(C)(C)C)cn23)c1 [Compound 58, tert-butyl (3-(3-(2-(2-methoxyethoxy)acetamido)phenyl)imidazo[1,2-a]pyridin-6-yl)carbamate]
1000 to 10000	> 90		COCCOCC(=O)Nc1cccc(-c2cnc3ccc(C)cn23)c1 [Compound 53]
< 1000	> 90	1000 to 10000	CNc1ccc2ncc(-c3cccc(NC(=O)COCCOCC(=O)Nc4cccc(-c5cnc6ccc(NC)cn56)c4)c3)n2c1 [Compound 78]
1000 to 10000	> 90	1000 to 10000	CC(C)(C)OC(=O)N(c1ccccc1)c1ccc2ncc(-c3ccccc3)n2c1 [Compound 90]
1000 to 10000	> 90		CNc1ccc2ncc(-c3cccc(NC(=O)COCCOC)c3)n2c1 [Compound 77]
1000 to 10000	> 90		CN(C(=O)OC(C)(C)C)c1ccc2ncc(-c3cccc(NC(=O)C4COC4)c3)n2c1 [Compound 150]
1000 to 10000	> 90	1000 to 10000	FC(F)(F)c1ccc2ncc(-c3ccccc3)n2c1 [Compound 25]
< 1000	> 90		COCCOCC(=O)Nc1cccc(-c2cnc3ccc(CNC(=O)OC(C)(C)C)cn23)c1 [Compound 145]
1000 to 10000	> 90		CCOC(=O)c1ccc2ncc(-c3ccccc3)n2c1 [Compound 24]
< 1000	> 90	1000 to 10000	COCCOCC(=O)Nc1cccc(-c2cnc3ccc(NC(=O)C(C)(C)C)cn23)c1 [Compound 130]
1000 to 10000	> 90		CNc1ccc2ncc(-c3cccc(OCCOCCOC)c3)n2c1 [Compound 153]
1000 to 10000	> 90		CC(C)(C)OC(=O)Nc1ccc2ncc(-c3cccc(N)c3)n2c1 [Compound 46]

IC50 (dN-SARM1 protein [1]) [nM]	inhibition at 20 µM (dN-SARM1 protein [2]) [%]	EC50 [3] [nM]	SMILES
1000 to 10000	> 90	1000 to 10000	Brc1cnc2ccc(N3CCOCC3)cn12 [Compound 33]
1000 to 10000	> 90		CC(C)(C)OC(=O)Nc1ccc2ncc(-c3cc(C(=O)NC4CCOCC4)cs3)n2c1 [Compound 125, tert-butyl (3-(4-((tetrahydro-2H-pyran-4-yl)carbamoyl)thiophen-2-yl)imidazo[1,2-a]pyridin-6-yl) carbamate]
1000 to 10000	50 to 89		COCCOCCNS(=O)(=O)c1cccc(-c2cnc3ccc(N(C)C(=O)OC(C)(C)C)cn23)c1 [Compound 108, tert-butyl (3-(3-(N-(2-(2-methoxyethoxy)ethyl)sulfamoyl)phenyl)imidazo[1,2-a]pyridin-6-yl)(methyl)carbamate]
< 1000	> 90		COCCOCC(=O)Nc1cccc(-c2cnc3ccc(N4CCOCC4)cn23)c1 [Compound 56]
< 1000	> 90		Cc1ccc2ncc(-c3cccc(NC(=O)C4CCOCC4)c3)n2c1 [Compound 54]
< 1000	50 to 89	1000 to 10000	CNc1ccc2ncc(-c3ccccc3)n2n1 [Compound 20]
1000 to 10000	> 90	< 1000	c1ccc(Nc2ccc3ncc(-c4ccccc4)n3c2)cc1 [Compound 75]
< 1000	> 90		O=C(Nc1cccc(-c2cnc3ccc(N4CCOCC4)cn23)c1)C1CCOCC1 [Compound 57]
< 1000	> 90	1000 to 10000	CN(C(=O)OC(C)(C)C)c1ccc2ncc(-c3cccc(NC(=O)COCCOCCOCC(=O)Nc4cccc5c4CN(C4CCC(=O)NC4=O)C5=O)c3)n2c1 (centres unmarked) [Compound 115, tert-butyl (3-(3-(2-(2-(2-(2-((2-(2,6-dioxopiperidin-3-yl))-1-oxoisoindolin-4-yl)amino)-2-oxoethoxy)ethoxy)ethoxy)acetamido)phenyl)imidazo[1,2-a]pyridin-6-yl)(methyl) carbamate]
1000 to 10000	> 90		CN(C(=O)OC(C)(C)C)c1ccc2ncc(-c3ccnc(N)c3)n2c1 [Compound 41]
1000 to 10000	> 90		CC(C)(C)OC(=O)NCc1ccc2ncc(I)n2c1 [Compound 143]
1000 to 10000	> 90		COCCOCC(=O)Nc1cccc(-c2cnc3ccc(NC(=O)COC)cn23)c1 [Compound 131]
< 1000	> 90		COc1ccn2c(-c3ccccc3)cnc2c1 [Compound 26]
< 1000	> 90		CNc1ccc2ncc(-c3cccc(C(=O)NCCOCCOC)c3)n2c1 [Compound 134]
< 1000	> 90		CC(C)(C)OC(=O)NCc1ccc2ncc(-c3cccc(N)c3)n2c1 [Compound 144]
1000 to 10000	> 90		CN(C(=O)OC(C)(C)C)c1ccc2ncc(-c3cccc(NC(=O)C4CCOC4)c3)n2c1 (centres unmarked) [Compound 149]
1000 to 10000	> 90		CC(C)(C)Oc1ccc2ncc(-c3cccc(NC(=O)C4CCOCC4)c3)n2c1 [Compound 55]
< 1000	> 90		CN(C)c1ccc2ncc(-c3ccccc3)n2n1 [Compound 94, N,N-dimethyl-3-phenylimidazo[1,2-b]pyridazin-6-amine]
1000 to 10000	> 90		CN(C(=O)OC(C)(C)C)c1ccc2ncc(-c3cccc(NC(=O)NC[C@@H]4CCO4)c3)n2c1 [Compound 152]

SMILES	IC50 (dN-SARM1 protein [1]) [nM]	inhibition at 20 µM (dN-SARM1 protein [2]) [%]	EC50 [3] [nM]
COC(=O)c1csc(-c2cnc3ccc(NC(=O)OC(C)(C)C)cn23)c1 [Compound 124, methyl 5-(6-((tert-butoxycarbonyl)amino)imidazo[1,2-a]pyridin-3-yl)thiophene-3-carboxylate]	1000 to 10000	> 90	
CN1CCN(c2ccc3ncc(-c4ccccc4)n3c2)CC1 [Compound 37]	1000 to 10000	50 to 89	
CN(C(=O)OC(C)(C)C)c1ccc2ncc(-c3cccc(C(=O)O)c3)n2c1 [Compound 132, 3-(6-((tert-butoxycarbonyl)(methyl)amino)imidazo[1,2-a]pyridin-3-yl)benzoic acid]	1000 to 10000	> 90	
